ChEMBL document CHEMBL6134831 (Eur J Med Chem, 2025)
Calls of active or inactive are those of the source. The calls are words filed in the database; no cut-off is given here.

How the values were obtained:
Mus musculus [1] = assay: (§1) Antihyperlipidemic activity against Triton WR-1339 induced hyperlipidemic male Swiss albino mouse model assessed as HDL level in mouse blood at 13 mg/kg, po pre-treated with compound for 6 days followed by triton WR-1339 induction and measured after 24 hrs (reference value: 97.4 +/- 1.2 mg/dL); type: functional; details: time 7 day
Mus musculus [2] = assay: Antihyperglycemic activity against Triton WR-1339 induced hyperlipidemic male Swiss albino mouse model assessed as blood glucose level at 13 mg/kg, po pre-treated with compound for 6 days followed by triton WR-1339 induction and measured after 24 hrs by glucose meter analysis (reference value: 121.6 +/- 7.8); type: functional; details: time 7 day
Mus musculus [3] = assay: Antihyperlipidemic activity against Triton WR-1339 induced hyperlipidemic male Swiss albino mouse model assessed as VLDL level in mouse blood at 13 mg/kg, po pre-treated with compound for 6 days followed by triton WR-1339 induction and measured after 24 hrs (reference value: 97.1 +/- 1 mg/dL); type: functional; details: time 7 day
Mus musculus [4] = assay: Antihyperlipidemic activity in Triton WR-1339 induced hyperlipidemic male Swiss albino mouse model assessed as amelioration of islet cell disruption at 13 mg/kg, po pre-treated with compound for 6 days followed by triton WR-1339 induction and measured after 24 hrs by H&E staining based microscopic analysis; type: functional, organism-based; details: time 7.0 day
Mus musculus [5] = assay: Antihyperlipidemic activity in Triton WR-1339 induced hyperlipidemic male Swiss albino mouse model assessed as change in carotid artery endothelial cells at 13 mg/kg, po pre-treated with compound for 6 days followed by triton WR-1339 induction and measured after 24 hrs by H&E staining based analysis; type: functional, organism-based; details: time 7.0 day
Mus musculus [6] = assay: as §1, with “total cholesterol” for “HDL”, “426.3” for “97.4”, “2” for “1.2”; type: functional; details: time 7 day
Mus musculus [7] = assay: Antihyperlipidemic activity against Triton WR-1339 induced hyperlipidemic male Swiss albino mouse model assessed as TG level in mouse blood at 13 mg/kg, po pre-treated with compound for 6 days followed by triton WR-1339 induction and measured after 24 hrs (reference value: 485.3 +/- 4.8 mg/dL); type: functional; details: time 7 day
Mus musculus [8] = assay: Antihyperlipidemic activity against Triton WR-1339 induced hyperlipidemic male Swiss albino mouse model assessed as LDL level in mouse blood at 13 mg/kg, po pre-treated with compound for 6 days followed by triton WR-1339 induction and measured after 24 hrs (reference value: 231.9 +/- 0.7 mg/dL); type: functional; details: time 7 day
Mus musculus [9] = assay: Antihyperlipidemic activity in Triton WR-1339 induced hyperlipidemic male Swiss albino mouse model assessed as histopathological change in kidney at 13 mg/kg, po pre-treated with compound for 6 days followed by triton WR-1339 induction and measured after 24 hrs by H&E staining based analysis; type: functional, organism-based; details: time 7.0 day
HepaRG [10] = assay: Cytotoxicity against human HepaRG cells assessed as mortality rate at 250 uM incubated for 30 mins by LDH assay relative to control; type: functional; details: 0.5 h
HepaRG [11] = assay: Cytotoxicity against human HepaRG cells assessed as mortality rate at 25 uM incubated for 30 mins by LDH assay relative to control; type: functional; details: 0.5 h

CC(C)OC(=O)C(C)(C)Oc1ccc(C(=O)c2ccc(Cl)cc2)cc1 [FENOFIBRATE]
Activity (Mus musculus [1]): 58.7 mg/dL
Activity (Mus musculus [2]): 75 mg/dL
Activity (Mus musculus [3]): 20.6 mg/dL
Activity (Mus musculus [4]): Active
Activity (Mus musculus [5]): Active
Activity (Mus musculus [6]): 135.7 mg/dL
Activity (Mus musculus [7]): 103 mg/dL
Activity (Mus musculus [8]): 54.4 mg/dL
Activity (Mus musculus [9]): Active
Activity (HepaRG [10]): 18%
Activity (HepaRG [11]): 12%
